Type in all cases: cell-based, human
Test [1] deals with peripheral blood / PBMCs / peptide-induced CTL lines of HLA-A*24 donors. Description: Staining of peripheral blood, PBMCs or peptide-induced CTL lines with MHC-tetramer reagents. The following applies: for staining pattern at day 10 compared to Negative Tetramer reagent: donor ID*24-8, 10 days culture with peptide; for population of CD8-positive, tetramer-positive cells in the UR: donor ID*24-2 and *24-8, FIG. 5; for specific CTLs (CD8-positive MHC-tetramer reagent-positive cells, UR): donor ID*24-2, 13 days stimulation with the peptide, then HIV peptide added, % of whole viable cells. As for the experimental part:
MBL Co. where the present inventors are affiliated with has acquired exclusive patent licensing rights in Japan for MHC-tetramer reagents (U.S. Pat. No. 5,635,363; French Application No. FR9911133; and U.S. Pat. Nos. 5,723,584, 5,874,239, 5,932,433, and 6,265,552) from Beckman Coulter Co. Based on the patents, PE-labeled MHC-tetramer reagents were prepared using adenovirus-specific CTL epitope peptides and HLA-A*2402 molecules.
Adenovirus-specific CTLs quantification was carried out using MHC-tetramer reagents that was prepared using CTL epitope peptides of the present invention, with peripheral blood, PBMCs isolated from peripheral blood, CTL lines induced using CTL epitope peptides as samples. Examples of quantification using PE-labeled MHC-tetramer reagents are described below. Labelling dyes may be used in an appropriate combination depending on the type of flow cytometer to be used, and is not limited to the examples described below.
Ten μl of a PE-labeled MHC-tetramer reagent, 20 μl of an FITC-labeled antibody for T cell (for example, CD8, CD4, or CD3), and such were added to 200 μl of collected peripheral blood. A CD45 antibody labeled with PC5 or such may also be added to eliminate nonspecific fluorescence due to contaminated erythrocytes. After gentle mixing, the mixture was allowed to stand at room temperature for 30 minutes. OptiLyse B was added, and erythrolysis and fixation was carried out according to the manufacturer's protocol. Two ml of PBS was added, stirred, and the cells were centrifuged at 400×g for 5 minutes. After the supernatant was removed by aspiration, the cells were resuspended in 500 μl of PBS and analyzed using a flow cytometer within 24 hours.
Ten μl of a PE-labeled MHC-tetramer reagent, 20 μl of an FITC-labeled T cell surface antibody (for example, CD8, CD4, or CD3), and such were added to an appropriate amount of PBMCs (10^5 to 10^6 cells) or a CTL line induced by use of CTL epitope peptides. A CD45 antibody labeled with PC5 or such may also be added to eliminate nonspecific fluorescence due to contaminated erythrocytes. After gentle mixing, the cells were allowed to stand at room temperature for 30 minutes. Three ml of PBS was added, stirred, and the cells were centrifuged at 400×g for 5 minutes. After the supernatant was removed by aspiration, the cells were resuspended in 500 μl of PBS. When a CTL line is used, 7-AAD Viability Dye (Non-viable cell detection reagent; MBL Co.) may be added to eliminate nonspecific fluorescence caused by non-viable cells. The cells were analyzed using a flow cytometer within 24 hours.
The results of staining obtained using the five types of MHC-tetramer reagents used to prepare the peptide-induced CTL lines are shown in FIG. 5.

In test [2] the test system is CTL line induced by TYF (PBMCs from ID*24-8). Description: Cross-reactivity of the TYF-induced CTL line to the subgroup C-specific CTL epitope. To be noted: PBMCs from ID*24-8 stimulated with TYF for 13 days. From the text:
As shown in FIG. 11-4, there are amino acid mutations at the fourth and sixth positions in TYF identified in the present invention as compared to the subgroup C-specific CTL epitopes. Thus, the cross-reactivity to subgroup C-specific CTL epitope ([…] (SEQ ID NO: 14); mutated amino acids are underlined) (Leen A M, Sili U, Vanin E F, Jewell A M, Xie W, Vignali D, Piedra P A, Brenner M K, Rooney C M. Conserved CTL epitopes on the adenovirus hexon protein expand subgroup cross-reactive and subgroup-specific CD8+ T cells. Blood. 104:2432-2440 (2004)) was examined using a CTL line induced by TYF.
PBMCs prepared from ID*24-8 were stimulated with TYF for 13 days, and then restimulated with TYF or […] (SEQ ID NO: 14) to examine whether the CTL line produces IFNγ.

The test system of test [3] is PBMCs of healthy adults reactive to the anti-HLA-A*24 antibody. Briefly: Induction of specific CTLs from PBMCs, method for quantifying cells producing intracellular IFNγ. Set-up: key to specific CTL induction, cytokine quantification method: ∘: “open circle” indicates that the use of a candidate peptide enabled specific CTLs to be induced; x: “cross” indicates that specific CTLs was unable to be induced. To be noted: for CD8-positive, IFNγ-positive (producing) cells in UR: restimulation with the same peptide as used in the induction, % in PBMCs. As for the experimental part: This induction method induces CTLs by adding peptides to culture media of PBMCs. Peptides are presented on antigen-presenting cells present among PBMCs, such as dendritic cells, B cells, macrophages, and certain types of T cells, whereby CTL precursor cells in PBMCs are stimulated to proliferate.
Peripheral blood collected from healthy adults that were reactive to the anti-HLA-A*24 antibody was centrifuged at 3,000 rpm for 5 to 10 minutes. The resulting supernatant plasma was collected. The non-plasma portion was processed according to a conventional method to isolate PBMCs. The characteristic of the present method is the addition of several % of plasma to an induction medium. In the present invention, a favorable result was obtained by adding 5% plasma. The medium is prepared by adding appropriate additives and antibiotics to a medium commonly used for cell culture. The CTL induction medium used in the present invention was RPMI1640 Hepes modify (Sigam) supplemented with 2-mercapotethanol, L-glutamine, and the antibiotics streptomycin and penicillin. In addition to these, insulin, transferrin, selenious acid, pyruvic acid, human serum albumin, solution of non-essential amino acids, and the like may be added. 1 to 3×10^6 PBMCs were suspended in 1 to 2.5 ml of the culture medium. A candidate peptide was added to the cells at a concentration of 1 to 20 μg/ml. The concentration of peptide can be altered depending on the solubility of the peptide. The peptide was added at 10 μg/ml. After two days, IL-2 was added at a final concentration of 20 to 100 U/ml. Round-bottomed culture dishes that allow the exchange of carbon dioxide gas are preferably used to co-culture PBMCs with peptides. In the context of the present invention, 14-ml round-bottomed polypropylene tubes (Becton Dikinson) or 96-well U-bottomed cell culture microtest plates (Becton Dikinson) were used. The adenovirus-specific CTLs were confirmed after about two and four weeks of culture. The cells were stimulated again with the peptide at 10 μg/ml after about two weeks of culture. When the induction of adenovirus-specific CTLs was confirmed, the cells were further stimulated with peptide-pulsed antigen-presenting cells to establish CTL lines.
Approximately 1/10 to all of the cells induced by the above-described method were transferred into 96-well U-bottomed cell culture microtest plates, and the peptide used for the induction was added thereto at a final concentration of 0.01 to 0.05 μg/ml. Then, an intracellular protein transport inhibitor (for example, brefeldin A, monensin, or such) was added, and the cells were cultured in a 5% CO2 incubator at 37° C. for 5 to 16 hours. After culture, the cells were washed, and phycoerythrin (PE)-labeled MHC-tetramer reagent and phycoerythrin-Cy5(PC5)-labeled CD8 antibody (Beckman Coulter) were added thereto. The resulting mixture was allowed to stand at room temperature for 15 to 30 minutes. After washing, the cells were fixed with 4% formaldehyde at 4° C. for 15 minutes and washed with an excess amount of washing solution. After membrane permeabilization treatment with 0.1% saponin, an FITC-labeled anti-IFNγ antibody (Beckman Coulter) was added, and reacted at room temperature for 15 to 30 minutes. After washing, the proportion of IFNγ-positive cells in T cells or MHC-tetramer reagent-positive cells was determined using a flow cytometer.
PBMCs derived from ten people with HLA-A*24 molecule were tested using 10 types of peptides. […] Thus, these six types of candidate epitope peptides serve as adenovirus-specific CTL epitope peptides. Since the adenovirus-specific CTL epitope peptides have the HLA-A*24-binding motif, they are likely to be HLA-A*2402-restricted epitope peptides, which are carried by 60% or more of the Japanese people. In the context of the results described above, MHC-tetramer reagents were synthesized using five types of epitope peptides, and their utility was tested.

With “HLA-A*2402 TYFNLGNKF (Seq Id No: 4) Tetramer Reagent [TYF-Tet]”, in test [1], the “staining pattern at day 10 compared to Negative Tetramer reagent” value is “clear CD8-positive, MHC-tetramer-positive pattern”. In test [1] (peptide-induced CTL lines), the “population of CD8-positive, tetramer-positive cells in the UR” value was “clearly detected”.
As for “HLA-A*2402 VYSGSIPYL (SEQ ID NO: 3) Tetramer Reagent [VYS-Tet]”, in test [1], the “staining pattern at day 10 compared to Negative Tetramer reagent” value is “clear CD8-positive, MHC-tetramer-positive pattern”. For the same substance, the “population of CD8-negative, tetramer reagent-positive cells in the UL” value in test [1] (peptide-induced CTL lines, FIG. 5, VYS-Tet: donor ID*24-1, *24-3, *24-11, *24-12, *24-14) is recorded as “detected”. For the same substance, the “population of CD8-positive, tetramer-positive cells in the UR” value in test [1] (peptide-induced CTL lines) is reported as “clearly detected”.
Consider “QYDPVAALF [CMV pp65, reference compound]”, for which, in test [1], the “specific CTLs (CD8-positive MHC-tetramer reagent-positive cells, UR)” value is listed as 28.8%.
With “TYFSLNNKF (An artificially synthesized epitope peptide sequence) [reference compound]”, the “IFNγ production of the CTL line induced by TYF on restimulation with the named peptide” value in test [2] is “did not produce IFNγ”. The “CD8-positive and TYF-Tet-positive cells” value in test [2] (restimulated with the named peptide) was 1.97%.
In the case of “TYPVLEEMF [EBV BRLF1, reference compound]”, the figures for the “CD8-positive, IFNγ-positive (producing) cells in UR” value in test [3] (donor *24-8) and in test [3] (donor *24-12) were 24.9% and 9.57%, respectively. In addition, the “specific CTL induction, cytokine quantification method” value was “∘” in test [3] (donor ID *24-1); “∘” in test [3] (donor ID *24-2); “∘” in test [3] (donor ID *24-3); “x” in test [3] (donor ID *24-5); “∘” in test [3] (donor ID *24-8); “∘” in test [3] (donor ID *24-10). Besides, the “specific CTL induction, cytokine quantification method” value in test [3] (donor ID *24-11), in test [3] (donor ID *24-12), in test [3] (donor ID *24-13) and in test [3] (donor ID *24-14) was “∘” throughout. Also, in test [3] (ten persons tested), the “number of persons with peptide-specific IFNγ production / CTL induction” value is “nine of ten persons”. Also, the “specific CTLs (CD8-positive MHC-tetramer reagent-positive cells, UR)” value in test [1] was 13.0%. The “positive rate: CD8-positive, MHC-tetramer reagent-positive cells to viable cells” value is 15.6% in test [1] (donor ID*24-8, PBMCs cultured with the epitope peptide for 10 days (day 10)) and 0.03% in test [1] (donor ID*24-8, immediately after blood collection (day 0)). Also, the “increase of the positive rate from day 0 to day 10” value in test [1] (donor ID*24-8, ten days of culture with the peptide) was “about 520 times”.

For the origin of these results see patent US20090142363A1, “CYTOTOXIC T-CELL EPITOPE PEPTIDE AND USE THEREOF” (priority 2005, published 2009).
